Ends that are not written are not given here.
Assays:
[1] = system: human pancreatic ductal epithelial cells (HPNE)
[2] = system: human embryonic kidney cells (HEK293T)
[3] = Electronic tongue analysis (Taste-Sensing System SA 402B); set-up: unit not given here; conditions: reference solution 30 mM KCl + 0.3 mM tartaric acid as baseline, first measurement excluded; for Umami: sensor AAE; for Umami / Bitter / Sweet: detection threshold 0, room temperature; for Umami / Bitter / Sour / Salty: four replicates; for Sour: detection threshold -13, room temperature; for Salty: detection threshold -6, room temperature; for Sweet: measured five times
Method: Taste characteristics were analyzed using the electronic tongue system E-tongue (Taste-Sensing System SA 402B, Intelligent Sensor Technology Co. Ltd., Japan). The system was equipped with five specific sensor probes for detecting sourness (CA0), saltiness (CT0), bitterness (C00), sweetness (GL1), and umami (AAE). Samples were tested at concentrations of 0.1 mg/mL and 1.0 mg/mL. Prior to experiments, sensors were activated by immersion in a reference solution (30 mM KCl and 0.3 mM tartaric acid) for 24 h. A 30 min self-diagnostic procedure was performed before each measurement to ensure data accuracy. The reference solution served both as a cleaning solution and standard solution for taste signal calibration. According to the manufacturer’s instructions, using the reference solution as baseline, the detection thresholds were set at −13 for sourness, −6 for saltiness, and 0 for other taste modalities. Two cleaning solutions were employed for electrode maintenance: (1) 30% ethanol solution containing 100 mM HCl for negative charge reference electrodes, and (2) 30% ethanol solution containing 100 mM KCl and 10 mM KOH for positive charge reference electrodes. All taste measurements were performed at room temperature with four replicates, except for sweetness which was measured five times. The first measurement data were excluded from analysis.

[4] = system: human umbilical vein endothelial cells (HUVEC)
Method: (§1) The cytotoxicity of 73 synthetic peptides was evaluated using four human cell lines: human pancreatic ductal epithelial cells (HPNE), human embryonic kidney cells (HEK293T), human umbilical vein endothelial cells (HUVEC), and human bronchial epithelial cells (BEAS-2B). When cell density reached 70% confluence, the complete culture medium was replaced with serum-free maintenance medium, and peptides were added at a final concentration of 100 μM for 36 h. Control groups received only serum-free maintenance medium without peptides. Cell proliferation was assessed using the CCK-8 assay kit (Solarbio, CA1210) according to the manufacturer’s instructions.

[5] = system: human bronchial epithelial cells (BEAS-2B)
Method: as §1

Substance | Average cell viability, HPNE [1] | Cell viability, HPNE, Data1 [1] | Cell viability, HPNE, Data2 [1] | Cell viability, HPNE, Data3 [1] | Average cell viability, HEK293T [2] | Cell viability, HEK293T, Data1 [2] | Cell viability, HEK293T, Data2 [2] | Cell viability, HEK293T, Data3 [2] | Umami ([3]; peptide 0.1 mg/mL) | Umami ([3]; peptide 1 mg/mL) | Bitter ([3]; sensor C00, peptide 0.1 mg/mL) | Bitter ([3]; sensor C00, peptide 1 mg/mL) | Sour ([3]; sensor CA0, peptide 0.1 mg/mL) | Sour ([3]; sensor CA0, peptide 1 mg/mL) | Salty ([3]; sensor CT0, peptide 0.1 mg/mL) | Salty ([3]; sensor CT0, peptide 1 mg/mL) | Sweet ([3]; sensor GL1, peptide 0.1 mg/mL) | Sweet ([3]; sensor GL1, peptide 1 mg/mL) | Average cell viability, HUVEC [4] | Cell viability, HUVEC, Data1 [4] | further results
AEDNSL [TaPep43] | 110.25 | 117.40 | 99.83 | 113.51 | 98.86 | 96.72 | 102.11 | 97.76 | 1.07 | -5.11 | 7.83 | 4.00 | -1.87 | 12.46 | -20.35 | 7.60 | 5.59 | -3.45 | 103.73 | 104.42 | Cell viability, HUVEC, Data2 [4]: 115.43; Cell viability, HUVEC, Data3 [4]: 91.33; Average cell viability, BEAS-2B [5]: 108.94; Cell viability, BEAS-2B, Data1 [5]: 119.14; Cell viability, BEAS-2B, Data2 [5]: 93.72; Cell viability, BEAS-2B, Data3 [5]: 113.96
AGDAW [TaPep30] | 103.96 | 100.43 | 106.72 | 104.73 | 110.47 | 112.62 | 114.23 | 104.57 | 1.69 | -4.59 | 7.53 | 3.18 | -3.43 | 12.02 | -20.28 | 11.18 | 5.66 | -6.46 | 102.13 | 114.08 | Cell viability, HUVEC, Data2 [4]: 97.39; Cell viability, HUVEC, Data3 [4]: 94.92; Average cell viability, BEAS-2B [5]: 116.78; Cell viability, BEAS-2B, Data1 [5]: 115.45; Cell viability, BEAS-2B, Data2 [5]: 115.55; Cell viability, BEAS-2B, Data3 [5]: 119.34
AKDEKEL [TaPep1] | 94.74 | 92.35 | 92.15 | 99.73 | 101.23 | 110.16 | 98.99 | 94.54 | 2.15 | -3.64 | 10.96 | 3.53 | -4.53 | 9.07 | -19.14 | 13.72 | 6.22 | -3.13 | 97.71 | 96.99 | Cell viability, HUVEC, Data2 [4]: 94.60; Cell viability, HUVEC, Data3 [4]: 101.54; Average cell viability, BEAS-2B [5]: 108.54; Cell viability, BEAS-2B, Data1 [5]: 105.88; Cell viability, BEAS-2B, Data2 [5]: 114.46; Cell viability, BEAS-2B, Data3 [5]: 105.28
ANGPE [TaPep69] | 101.93 | 107.52 | 97.94 | 100.33 | 99.97 | 100.13 | 102.30 | 97.48 | 1.23 | -4.62 | 7.32 | 3.75 | -2.38 | 11.54 | -19.29 | 9.06 | 5.65 | -4.24 | 102.58 | 91.72 | Cell viability, HUVEC, Data2 [4]: 108.65; Cell viability, HUVEC, Data3 [4]: 107.37; Average cell viability, BEAS-2B [5]: 106.78; Cell viability, BEAS-2B, Data1 [5]: 116.65; Cell viability, BEAS-2B, Data2 [5]: 94.82; Cell viability, BEAS-2B, Data3 [5]: 108.87
APEELDA [TaPep36] | 113.58 | 114.11 | 111.61 | 115.01 | 103.41 | 103.44 | 102.11 | 104.67 | 0.55 | -6.54 | 7.85 | 3.11 | -0.61 | 17.06 | -18.92 | 13.68 | 5.62 | -8.13 | 101.78 | 93.96 | Cell viability, HUVEC, Data2 [4]: 95.80; Cell viability, HUVEC, Data3 [4]: 115.59; Average cell viability, BEAS-2B [5]: 102.92; Cell viability, BEAS-2B, Data1 [5]: 111.17; Cell viability, BEAS-2B, Data2 [5]: 103.39; Cell viability, BEAS-2B, Data3 [5]: 94.22
AQDDLP [TaPep20] | 110.18 | 113.51 | 117.20 | 99.83 | 99.56 | 100.69 | 99.18 | 98.80 | 1.29 | -4.77 | 7.24 | 3.35 | -2.48 | 11.76 | -21.79 | 6.62 | 5.13 | -4.17 | 100.19 | 93.96 | Cell viability, HUVEC, Data2 [4]: 106.73; Cell viability, HUVEC, Data3 [4]: 99.87; Average cell viability, BEAS-2B [5]: 101.76; Cell viability, BEAS-2B, Data1 [5]: 114.06; Cell viability, BEAS-2B, Data2 [5]: 96.91; Cell viability, BEAS-2B, Data3 [5]: 94.32
AQKQE [TaPep53] | 100.53 | 111.51 | 101.33 | 88.75 | 96.06 | 101.55 | 93.50 | 93.12 | 2.86 | -3.47 | 7.88 | 2.74 | -6.36 | 8.92 | -19.95 | 13.59 | 9.02 | -4.92 | 99.25 | 90.21 | Cell viability, HUVEC, Data2 [4]: 95.96; Cell viability, HUVEC, Data3 [4]: 111.60; Average cell viability, BEAS-2B [5]: 99.50; Cell viability, BEAS-2B, Data1 [5]: 92.92; Cell viability, BEAS-2B, Data2 [5]: 110.37; Cell viability, BEAS-2B, Data3 [5]: 95.21
AQSSLS [TaPep40] | 106.99 | 100.53 | 109.02 | 111.41 | 100.57 | 103.15 | 101.26 | 97.29 | 2.37 | -3.91 | 7.48 | 3.31 | -5.48 | 10.99 | -19.59 | 10.09 | 10.64 | -5.29 | 101.30 | 102.66 | Cell viability, HUVEC, Data2 [4]: 110.88; Cell viability, HUVEC, Data3 [4]: 90.37; Average cell viability, BEAS-2B [5]: 101.16; Cell viability, BEAS-2B, Data1 [5]: 116.45; Cell viability, BEAS-2B, Data2 [5]: 94.02; Cell viability, BEAS-2B, Data3 [5]: 93.02
